Experimental data from US20100055145A1, “STENT COATINGS FOR REDUCING LATE STENT THROMBOSIS” (Biosensors International Group, priority 2008, published 2010).

Key:
[1] = Solubility of BIOLIMUS A9; format: physicochemical
[2] = tested on: proliferating animal and human smooth muscle cells; experiment: Growth inhibition of smooth muscle cells in culture; format: cell-based; details: compared with sirolimus
Source text: Like sirolimus and everolimus, BIOLIMUS A9 is rapidly absorbed in tissues and is able to reversibly bind to immunophilins (cytoplasmic proteins) found inside living cells.

[3] = Partition coefficient (log P), reverse phase HPLC

CCOCCO[C@@H]1CC[C@@H](C[C@@H](C)[C@@H]2CC(=O)[C@H](C)/C=C(\C)[C@@H](O)[C@@H](OC)C(=O)[C@H](C)C[C@H](C)/C=C/C=C/C=C(\C)[C@@H](OC)C[C@@H]3CC[C@@H](C)[C@@](O)(O3)C(=O)C(=O)N3CCCC[C@H]3C(=O)O2)C[C@H]1OC [BIOLIMUS A9, 42-O-(2-ethoxyethyl)rapamycin]
Solubility: 25% ethanol in water ([1]; 25% ethanol in water): Practically insoluble
Solubility: ethanol ([1]; ethanol): Very soluble
Solubility: ethyl acetate ([1]; ethyl acetate): Very soluble
Solubility: methanol ([1]; methanol): Very soluble
Solubility: water (independent of pH) ([1]; water (independent of pH)): Practically insoluble
potency of growth inhibition of proliferating smooth muscle cells [2]: potency similar to that of sirolimus
peak blood levels (after stent implantation): 3 ng/mL
peak blood level lower than therapeutic levels of oral sirolimus or everolimus following organ transplant (in vivo, po): 20 fold
Partition Coefficient (E Log Poct): Log Pn-octanol ([3]; As measured by reverse phase HPLC): Log Pn-octanol = 7.63
partition coefficient (log P) ([3]; pH 7.40, estimated): 7.63
